According to patent US20260151358A1, “METHODS OF TREATING, AMELIORATING, AND/OR PREVENTING STRESS-RELATED DISORDER” (Yale University, priority 2022, published 2026):
Entries after “also recorded” stand apart in the source; their conditions may differ.

Experiments:
dlPFC Delay cells = experiment: Single unit recording with iontophoresis of dlPFC Delay cells in monkeys performing the ODR working memory task; assay type: in vivo, rhesus macaques; conditions: for PFC neuronal firing (Delay cell firing): FIGS. 9A-9B, monkeys performing a working memory task; for delay-related firing for nonpreferred directions / delay-related firing of dlPFC Delay cells for the neurons' preferred direction / d′ measure of spatial tuning: iontophoresis, vs control, ODR task; for effect on the S-Bay (LTCC agonist)-induced reduction of Delay cell firing: pretreatment
Description: The physiological contributions of LTCC and β1-AR signaling were examined at the cellular level in rhesus macaques performing the oculomotor delayed response (ODR) spatial working memory task (FIG. 4A) to determine how they influence the neuronal firing needed for working memory and higher cognition. Recordings were made from the caudal principal sulcus (FIG. 4B) using an iontophoretic electrode (FIG. 4C) that allows minute ejection of charged compounds onto the neuron being recorded. The dlPFC contains “Delay cells” that are able to fire across the length of the delay period while the subject is remembering a location (FIG. 4D); this persistent firing is spatially tuned for the neuron's preferred direction, thus representing visual space in working memory. The effects of β1-AR-Cav1.2 signaling on dlPFC “Delay cell” firing were tested using single unit recordings coupled with iontophoresis in adult and aged rhesus monkeys performing the ODR task using repeated measures analyses. Aged monkeys have naturally-occurring calcium dysregulation, and thus are particularly useful for examining agents that reduce calcium signaling. As there are no compounds selective for Cav1.2, these experiments used agents targeting all LTCCs (i.e. Cav1.2 and Cav1.3 in dlPFC).

test animals = experiment: Working memory (cognition) after β1-AR or β2-AR blockade (FIG. 11); assay type: in vivo
rhesus monkeys = experiment: Stress-induced (FG7142) working memory deficits, spatial delayed response task, systemic administration; assay type: in vivo; conditions: for stress-induced cognitive deficits: monkeys; for stress-induced working memory (cognitive) deficits: pretreatment, FG7142-treated animals, delayed response task; for effect of the selected dose alone on working memory performance: without stressor
Description: The final experiments examined whether systemic administration of compounds that block β1-AR or LTCCs prevent stress-induced working memory deficits in rhesus monkeys (n=6), as predicted by the physiological data. This experiment used the LTCC blocker, nimodipine, which normalizes dlPFC working memory in human subjects carrying the CACNA1C allele that increases channel expression. The current experiments tested the effects of β1-AR or LTCC blockade on stress-induced working memory deficits in adult monkeys performing the spatial delayed response task in a Wisconsin General Test Apparatus. The anxiogenic inverse benzodiazepine agonist, FG7142, was used as a pharmacological stressor, as it produces a classic stress response including cortisol release in humans and monkeys, yet allows precise dosing to produce a mild response that impairs accuracy without impeding motivation for testing for food rewards. […]; post-hoc comparisons: vehicle+vehicle vs. vehicle+stress, p=0.001; […]; post-hoc comparisons: vehicle+vehicle vs. vehicle+stress, p=0.0009; vehicle+stress vs. nimodipine+stress, p=0.0006).

[1] = target: β3-adrenergic receptor subtype (β3-AR) (Homo sapiens, UniProt P13945); conditions: cited from earlier work
β3-adrenergic receptor subtype (β3-AR), sequence (P13945 whole entry): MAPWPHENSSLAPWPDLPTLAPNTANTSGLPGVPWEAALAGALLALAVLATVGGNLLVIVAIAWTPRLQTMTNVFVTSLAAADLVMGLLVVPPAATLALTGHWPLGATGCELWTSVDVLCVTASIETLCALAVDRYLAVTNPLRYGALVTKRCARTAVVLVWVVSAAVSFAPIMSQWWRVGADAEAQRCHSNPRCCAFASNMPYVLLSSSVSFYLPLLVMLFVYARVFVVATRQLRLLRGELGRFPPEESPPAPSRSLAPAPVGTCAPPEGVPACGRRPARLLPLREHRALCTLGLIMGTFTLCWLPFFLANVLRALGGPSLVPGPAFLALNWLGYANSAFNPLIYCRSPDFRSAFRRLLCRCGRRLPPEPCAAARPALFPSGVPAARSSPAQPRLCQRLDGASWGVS

dlPFC function = conditions: published data, Li et al. 1994; cited from earlier work

Q: Which “PFC neuronal firing (Delay cell firing)” value (dlPFC Delay cells) does the source give for `CC[C@H](NC(C)C)[C@H](O)c1ccc(O)c2[nH]c(=O)ccc12` (relative stereo) [procaterol, (±)-(1R,2S)-rel-8-hydroxy-5-[1-hydroxy-2-(isopropylamino)butyl]-quinolin-2 (1H)-one] here?
A: Its value is “increases delay cell firing”.

Q: What does the source list for `O=C(NCCNCC(O)COc1ccc(O)cc1)N1CCOCC1` (racemic) [xamoterol, (RS)—N-(2-{[2-hydroxy-3-(4-hydroxyphenoxy)propyl]amino}ethyl)morpholine-4-carboxamide]?
A: PFC neuronal firing (Delay cell firing) (dlPFC Delay cells): reduces PFC neuronal firing; delay-related firing for nonpreferred directions (dlPFC Delay cells): not for nonpreferred directions; delay-related firing of dlPFC Delay cells for the neurons' preferred direction (dlPFC Delay cells): reduced delay-related firing; d′ measure of spatial tuning (dlPFC Delay cells): significant reduction

Q: Which “delay-related firing of dlPFC Delay cells for the neurons' preferred direction” value (dlPFC Delay cells) does the source give for `COC(=O)C1=C(C)NC(C)=C([N+](=O)[O-])[C@H]1c1ccccc1C(F)(F)F` [(S)-(−)-Bay-K 8644, (−)-methyl 2,6-dimethyl-5-nitro-4 (S)-[2-(trifluoromethyl)phenyl]-1,4-dihydropyridine-3-carboxylate] here?
A: The value was “reduced delay-related firing”.

Q: And the “d′ measure of spatial tuning” value (dlPFC Delay cells)?
A: The value was “decreased”.

Q: What does the source list for `c1ccc2c(c1)CCC[C@H]2Nc1nc2ccccc2[nH]1` [NS8593, N-[(1R)-1,2,3,4-tetrahydro-1-naphthalenyl]-1H-benzimidazol-2-amine]?
A: delay-related firing for nonpreferred directions (dlPFC Delay cells): smaller increase; delay-related firing of dlPFC Delay cells for the neurons' preferred direction (dlPFC Delay cells): significantly increased delay firing; d′ measure of spatial tuning (dlPFC Delay cells): significant increase; effect on the S-Bay (LTCC agonist)-induced reduction of Delay cell firing (dlPFC Delay cells): blocked

Q: For `CCN(c1ccccc1)c1cc(NC)[n+](C)c(C)n1` [ZD7288, N-ethyl-1,6-dihydro-1,2-dimethyl-6-(methylimino)-N-phenyl-4-pyrimidinamine], which “effect on the S-Bay (LTCC agonist)-induced reduction of Delay cell firing” value (dlPFC Delay cells) is on record?
A: Its value is “blocked”.

Q: Which “cognition (working memory)” value (test animals; 0.1 mg/kg, FIG. 11, n=1) does the source give for `Cc1ccc(OCC(O)C(C)NC(C)C)c2c1CCC2` (centres unmarked) [IC1118551, 3-(isopropylamino)-1-[(7-methyl-4-indanyl)oxy]butan-2-ol] here?
A: Its value is “impaired cognition”.

Q: Which “working memory performance compared to vehicle+vehicle control” value (rhesus monkeys; vehicle pretreatment + pharmacological stressor, n=6) does the source give for `CNC(=O)c1cc2c(cn1)[nH]c1ccccc12` [FG7142] here?
A: The value was “significantly impaired performance”.

Q: For `OC(CNCC(O)C1CCc2cc(F)ccc2O1)C1CCc2cc(F)ccc2O1` (centres unmarked) [nebivolol, 1-(6-fluoro-3,4-dihydro-2H-chromen-2-yl)-2-[[2-(6-fluoro-3,4-dihydro-2H-chromen-2-yl)-2-hydroxyethyl]amino]ethanol], which “cognition (working memory)” value (test animals; 1.0 mg/kg, FIG. 11) is on record?
A: Its value is “improved cognition”.

Q: What about the stress-induced cognitive deficits (rhesus monkeys; 0.01 mg/kg, FIG. 10B) of the same molecule?
A: The stress-induced cognitive deficits was “blocked stress-induced cognitive deficits”.

Q: And the stress-induced cognitive deficits (rhesus monkeys; 0.1 mg/kg, FIG. 10A)?
A: Its stress-induced cognitive deficits is “blocked stress-induced cognitive deficits”.

Q: What about the “stress-induced working memory (cognitive) deficits” value (“stress-induced working memory” for short) (rhesus monkeys) of the same molecule?
A: The value was “prevented stress-induced cognitive deficits”.

Q: With `CC(C)NCC(O)COc1ccc(CCOCC2CC2)cc1` (centres unmarked) [betaxolol, 1-{4-[2-(cyclopropylmethoxy)ethyl]phenoxy}-3-(propan-2-ylamino)propan-2-ol] as the molecule, how does the “pKD value for β3-AR” value [1] read?
A: The value was 5.97±0.08.

Q: What about the “delay-related firing of dlPFC Delay cells for the neurons' preferred direction” value (dlPFC Delay cells) of the same molecule?
A: The value was “enhanced delay-related firing”.

Q: What about the “d′ measure of spatial tuning” value (dlPFC Delay cells) of the same molecule?
A: Its value is “increased”.

Q: What about the “stress-induced working memory” value (rhesus monkeys) of the same molecule?
A: The value was “prevented working memory deficits; also recorded: blocked stress-induced cognitive deficits”.

Q: What about the “effect of the selected dose alone on working memory performance” value (rhesus monkeys) of the same molecule?
A: The value was “no effect on their own”.

Q: With `CC(C)NCC(O)COc1cccc2ccccc12` (racemic) [propranolol, (RS)-1-(1-methylethylamino)-3-(1-naphthyloxy)propan-2-ol] as the molecule, how does the “effect on dlPFC function” value (dlPFC function) read?
A: The value was “little effect”.

Q: With `COCCOC(=O)C1=C(C)NC(C)=C(C(=O)OC(C)C)C1c1cccc([N+](=O)[O-])c1` (centres unmarked) [nimodipine, 3-(2-methoxyethyl) 5-propan-2-yl 2,6-dimethyl-4-(3-nitrophenyl)-1,4-dihydropyridine-3,5-dicarboxylate] as the molecule, how does the “stress-induced working memory” value (rhesus monkeys) read?
A: The value was “prevented working memory deficits”.

Q: What about the “effect of the selected dose alone on working memory performance” value (rhesus monkeys) of the same molecule?
A: The value was “no effect on their own”.
